Test results: US20100273205A1, “Magnetic resonance imaging contrast agents” (priority 2005, published 2010)

Test system: formalin-fixed visual cortex (gray and white matter)
Assay: LFB relaxation enhancement, inversion-recovery spin-echo and multi-echo spin-echo MR at 14T
Parameters: species or system human
Settings: LFB in 95% ethanol then Li2CO3, versus formalin control
Protocol: Formalin-fixed samples of visual cortex, approximately 1 cm in thickness, were immersed in a mixture of LFB dissolved in a solvent of 95% ethanol (500 mg LFB in 50 ml ethanol) for durations between 48 hours and 3 months. Following LFB staining, the tissue was rinsed in 70% ethanol, rinsed in distilled water, and then immersed in an aqueous solution of lithium carbonate(Li2CO3) (0.25 g Li2CO3 in 500 mL water) until gray-white matter contrast had increased, ranging between approximately 5 minutes and 24 hours. Next, the tissue was rinsed twice more in 70% ethanol and lastly in distilled water. Additional control samples were prepared with 1) formalin only or 2) 95% ethanol followed by immersion in Li2CO3.
Tissue samples were blotted and then immersed in perfluoropolyether (Fomblin, Ausimont USA, Thorofare, N.J.) in a low-pressure environment. […] The low-pressure environment is used to remove artifact-inducing air bubbles from within the tissue.
Data was acquired using a 10 mm birdcage coil in a vertical bore 14T magnet (Magnex Scientific, Oxford, England), with an 89-mm bore and 100 G/cm gradient coil. An inversion-recovery prepared spin-echo sequence and a multi-echo spin-echo sequence were used to determine T1 and T2, respectively. Parameters were estimated in three regions of interest (ROIs), outer gray matter (GMo), inner gray matter (GMi), and white matter (WM), using a nonlinear least-squares fitting routine using the following equations, a:
SIIR−SE=Mo(1−2αe^−TIIT^1)SISE∝Moe^−TEIT^2
where α represents flip angle deviation from 180° and Mo is the equilibrium magnetization.

Substance: Luxol fast blue [LFB]
- decrease of T1 in inner gray matter (GMi): 41%
- decrease of T1 in outer gray matter (GMo): 30%
- decrease of T1 in white matter (WM): 47%
